{"source": "patent US20230407373A1", "about": "(priority 2020, published 2023)", "key": {"[1]": {"test_system": "HCoV-OC43 gRNA and sgRNA", "format": "binding"}, "[2]": {"test_system": "gRNA of HCoV-OC43", "format": "binding"}}}
{"substance": "SLTM: host protein, UniProt Q9NWH9", "values": [{"measurement": "target (unweighted spectral count, OC43 Probe II capture)", "setting": "[1]; 36 hpi, type n_36_v, tested against no-probe control, FDR<10%", "value": 6}, {"measurement": "target (unweighted spectral count, OC43 Probe II)", "setting": "[1]; type n_48_v, 48 hpi, OC43 Probe II capture on infected cells", "value": 8}, {"measurement": "background (unweighted spectral count, no-probe control)", "setting": "[1]; type n_48_v, 48 hpi, no-probe control on infected cells", "value": 1}, {"measurement": "target (spectral count)", "setting": "[2]; type g_36_m, HCoV-OC43-infected HCT-8 cells, 36 hpi, Probe I", "value": 10}, {"measurement": "background (spectral count)", "setting": "[2]; type g_36_m, uninfected-probe control, 36 hpi, Probe I", "value": 1}, {"measurement": "target (spectral count, OC43 Probe I RNP capture)", "setting": "[2]; type n_48_v: 48 hours post-infection, infected cells, OC43 Probe I, unweighted spectral count", "value": 11}, {"measurement": "background (spectral count, no-probe control)", "setting": "[2]; type n_48_v: 48 hours post-infection, no-probe control on infected cells", "value": 1}]}
